Data taken from patent publication US4565823A, “Medical agent for suppressing arteriosclerosis” (Yamanouchi Pharmaceutical Co., Ltd., priority 1982, dated 1986).
Structures can show the parent of a compound that is named as a salt.

How the values were obtained:
[1] = test system: cholesterol levels in the serum; assay: Effect on cholesterol levels in the serum (normal rats); format: in vivo; details: oral
[2] = test system: cholesterol levels in the serum; assay: Effect on cholesterol levels in the serum (hypercholesterolemia rats); format: in vivo, Male Sprague-Dawley rats; details: for HDL chol. / HDL chol. / LDL + VLDL chol. / LDL + VLDL chol. / T. chol. (total cholesterol): oral; for effect on HDL cholesterol (words) / effect on total cholesterol in the serum (words): rat, in vivo
Method: Male Sprague-Dawley rats (JCL®, Nippon Clea Co. Ltd., Tokyo, Japan) weighing 90-100 g were fed semipurified diet containing 10% coconut oil, 1.5% cholesterol and 0.5% cholic acid. Three days after the start of feeding, the rats are allocated at random by the body weight to multiple groups each consisting 6-8 rats. On day 4 through 7, the drug suspension in 0.5% methylcellulose was orally given daily. […] Following the final dose, the rats were fasted overnight (approximately 16 hours). […] Serum was obtained by centrifugation at 1,600 xg for 15 min and stored at 4° C. in plastic tubes. The amount of total cholesterol and HDL cholesterol in the serum were determined. The determination of the total cholesterol was practiced by the method described in Schettler, G & Nussel; "Arbeitsmed. Sozialmed. Praventivmed." 10, 25 (1975) and the determination of HDL cholesterol was practiced by the method described in T. T. Ishikawa et al; "Lipids", 11, 628 (1976).

[3] = acute toxicity, mice (ICR); details: mouse, in vivo
Text: (§1) Nicardipine hydrochloride is a low toxicity compound, and this fact is confirmed by acute toxicity examination experiment.

[4] = acute toxicity, rats (Wister); details: rat, in vivo
Text: as §1

[5] = acute toxicity, rats (S.D.); details: rat, in vivo
Text: as §1

[6] = acute toxicity, dog (mongrel); format: in vivo; details: in vivo, iv, only a range in parentheses printed
Text: as §1

dog (mongrel) = assay: acute toxicity, dog (mongrel); format: in vivo; details: p.o.
Text: as §1

mice, rats, dog = assay: acute toxicity examination (overall statement); details: in vivo
Text: as §1

[7] = test system: aortic smooth muscle cell; assay: 12-HETE-associated aortic smooth muscle cell migration, filter membrane technique in modified Boyden chambers; format: cell-based; details: 6×10^-15 g/ml 12-HETE, 37° C.
Text: The effect of nicardipine on 12-HETE-associated aortic smooth muscle cell migration can be examined by measuring the migration of aortic smooth muscle cell by filter membrane technique in modified Boyden chambers as follows:
5×10^5 of the smooth muscle cells were suspended in Ca^2+ -containing culture medium supplemented with 5% calf serum containing various concentration of nicardipine. Control cultures contained the same volume, a final concentration of 1% (v/v), of […]. The suspensions of the smooth muscle cells were placed in the upper compartment of the chamber. The lower compartment of the chamber contained the same culture medium supplemented with 6×10^-15 g/ml of 12-HETE and 5% calf serum containing no nicardipine. The cells was incubated at 37° C. As control, medium with the same concentration of solvent (1% ethanol) containing no 12-HETE was used. Smooth muscle cell migration was quantitated microscopically by counting the number of cells that migrated into the filter. In each experiment, 10 high-power fields in 5 replicate cultures were examined to determine the number of cells that had migrated into the filers. Cell migration was expressed as cells/10 HPF (high-power fields) in FIG. 1.

[8] = hypercholesterolemia rats, 10 mg/kg
[9] = hypercholesterolemia rats, 30 mg/kg
[10] = hypercholesterolemia rats, 100 mg/kg
[11] = listed as nicardipine hydrochloride
[12] = hypercholesterolemia rats, 50 mg/kg
[13] = hypercholesterolemia rats, 200 mg/kg

COC(=O)C1=C(C)NC(C)=C(C(=O)OCCN(C)Cc2ccccc2)C1c1cccc([N+](=O)[O-])c1 (centres unmarked) [Nicardipine hydrochloride]
HDL chol. ([1]; 10 mg/kg): 29.6 ± 1.4 mg/dL | HDL chol. / LDL + VLDL chol. ([1]; 10 mg/kg): 3.020 | LDL + VLDL chol. ([1]; 10 mg/kg): 9.8 ± 1.9 mg/dL | T. chol. (total cholesterol) ([1]; 10 mg/kg): 39.4 ± 2.0 mg/dL | HDL chol. ([1]; 30 mg/kg): 37.2 ± 2.7 mg/dL | HDL chol. / LDL + VLDL chol. ([1]; 30 mg/kg): 10.941 | LDL + VLDL chol. ([1]; 30 mg/kg): 3.4 ± 1.6 mg/dL | T. chol. (total cholesterol) ([1]; 30 mg/kg): 41.3 ± 4.7 mg/dL | HDL chol. ([1]; 100 mg/kg): 39.8 ± 4.3 mg/dL | HDL chol. / LDL + VLDL chol. ([1]; 100 mg/kg): 14.214 | LDL + VLDL chol. ([1]; 100 mg/kg): 2.8 ± 1.2 mg/dL | T. chol. (total cholesterol) ([1]; 100 mg/kg): 40.8 ± 5.9 mg/dL | effect on LDL chol ([2]; hypercholesterolemia rats): reduces remarkably LDL chol | HDL chol. [2, 8]: 27.0 ± 1.8 mg/dL | HDL chol. / LDL + VLDL chol. [2, 8]: 0.090 | LDL + VLDL chol. [2, 8]: 299.4 ± 52.8 mg/dL | T. chol. (total cholesterol) [2, 8]: 326.4 ± 52.0 mg/dL | HDL chol. [2, 9]: 28.0 ± 0.5 mg/dL | HDL chol. / LDL + VLDL chol. [2, 9]: 0.067 | LDL + VLDL chol. [2, 9]: 420.6 ± 53.2 mg/dL | T. chol. (total cholesterol) [2, 9]: 448.6 ± 52.8 mg/dL | HDL chol. [2, 10]: 47.0 ± 1.8 mg/dL | HDL chol. / LDL + VLDL chol. [2, 10]: 0.250 | LDL + VLDL chol. [2, 10]: 188.0 ± 26.4 mg/dL | T. chol. (total cholesterol) [2, 10]: 246.0 ± 24.6 mg/dL | effect on HDL cholesterol (words) [2, 11]: increases selectively HDL chol | effect on total cholesterol in the serum (words) [2, 11]: reduce the amount of total cholesterol in the serum | LD50 ([3]; iv, mice (ICR) female): 19.9 mg/kg | LD50 ([3]; po, mice (ICR) female): 650 mg/kg | LD50 ([3]; po, mice (ICR) male): 634 mg/kg | LD50 ([3]; sc, mice (ICR) female): 710 mg/kg | LD50 ([3]; sc, mice (ICR) male): 540 mg/kg | LD50 ([4]; iv, rats (Wister) female): 17.2 mg/kg | LD50 ([4]; iv, rats (Wister) male): 15.5 mg/kg | LD50 ([4]; po, rats (Wister) female): 184 mg/kg | LD50 ([4]; po, rats (Wister) male): 187 mg/kg | LD50 ([4]; sc, rats (Wister) female): 606 mg/kg | LD50 ([4]; sc, rats (Wister) male): 677 mg/kg | LD50 ([5]; iv, rats (S.D.) female): 25 mg/kg | LD50 ([5]; iv, rats (S.D.) male): 18.1 mg/kg | LD50 ([5]; po, rats (S.D.) female): 557 mg/kg | LD50 ([5]; po, rats (S.D.) male): 643 mg/kg | LD50 [6]: 5 to 8.1 mg/kg | MLD (dog (mongrel)): > 60 mg/kg | acute toxicity (mice, rats, dog): low toxicity

CCOC(=O)C(C)(C)Oc1ccc(Cl)cc1 [clofibrate]
HDL chol. ([1]; 50 mg/kg): 26.5 ± 2.5 mg/dL | HDL chol. / LDL + VLDL chol. ([1]; 50 mg/kg): 1.828 | LDL + VLDL chol. ([1]; 50 mg/kg): 14.5 ± 1.0 mg/dL | T. chol. (total cholesterol) ([1]; 50 mg/kg): 42.7 ± 2.3 mg/dL | HDL chol. ([1]; 100 mg/kg): 30.3 ± 3.1 mg/dL | HDL chol. / LDL + VLDL chol. ([1]; 100 mg/kg): 3.258 | LDL + VLDL chol. ([1]; 100 mg/kg): 9.3 ± 1.5 mg/dL | T. chol. (total cholesterol) ([1]; 100 mg/kg): 39.7 ± 2.7 mg/dL | HDL chol. ([1]; 200 mg/kg): 22.8 ± 2.7 mg/dL | HDL chol. / LDL + VLDL chol. ([1]; 200 mg/kg): 1.664 | LDL + VLDL chol. ([1]; 200 mg/kg): 13.7 ± 2.1 mg/dL | T. chol. (total cholesterol) ([1]; 200 mg/kg): 36.5 ± 4.4 mg/dL | HDL chol. [2, 12]: 13.8 ± 1.0 mg/dL | HDL chol. / LDL + VLDL chol. [2, 12]: 0.036 | LDL + VLDL chol. [2, 12]: 379.6 ± 92.6 mg/dL | T. chol. (total cholesterol) [2, 12]: 412.0 ± 77.8 mg/dL | HDL chol. [2, 10]: 21.0 ± 2.5 mg/dL | HDL chol. / LDL + VLDL chol. [2, 10]: 0.100 | LDL + VLDL chol. [2, 10]: 210.4 ± 55.8 mg/dL | T. chol. (total cholesterol) [2, 10]: 231.0 ± 54.2 mg/dL | HDL chol. [2, 13]: 19.3 ± 2.8 mg/dL | HDL chol. / LDL + VLDL chol. [2, 13]: 0.065 | LDL + VLDL chol. [2, 13]: 298.0 ± 66.2 mg/dL | T. chol. (total cholesterol) [2, 13]: 317.4 ± 64.4 mg/dL

COC(=O)C1=C(C)NC(C)=C(C(=O)OCCN(C)Cc2ccccc2)C1c1cccc([N+](=O)[O-])c1 (centres unmarked) [nicardipine]
effect on HDL cholesterol (words) [2]: elevating high density lipoprotein (HDL) selectivity | effect on total cholesterol in the serum (words) [2]: reducing cholesterol level increased in the serum | inhibition of 12-HETE-associated aortic smooth muscle cell migration [7]: inhibits 12-HETE-associated aortic smooth muscle cell migration (aortic smooth muscle cell migration induced by 12-L-hydroxy-5,8,10,14-eicosotetraenoic acid) significantly

COc1ccc(Cc2nccc3cc(OC)c(OC)cc23)cc1OC [papaverine]
LD50 ([3]; iv, mice (ICR) male): 27 mg/kg | LD50 ([4]; iv, rats (Wister) male): 13.3 mg/kg
